Results published in patent US9956319B2, “Compositions useful as antibiofilm or antimicrobial agents and methods using same” (BAYLOR COLLEGE OF MEDICINE, priority 2012, dated 2018).

Legend:
Klebsiella pneumoniae = assay: Bacterial colony counts extracted from impregnated central venous catheters after exposure to bacteria; assay type: cell-based; details: catheter impregnated with 25 mg/ml, 10^5 cfu/ml suspension in TSB, 37° C., 24 hours
Method: (§1) To evaluate the anticolonization/antimicrobial activity of central venous catheters treated with dihydrolipoic acid, segments of 7 French triple lumen polyurethane central venous catheters were impregnated with dihydrolipoic acid using the same patented method described in Example 1 (U.S. Pat. No. 6,589,591) with 25 mg/ml (final solution volume) of the agent. After the impregnation process and drying, Catheter segments were then placed in the impregnating solution at 55° C. with agitation for 1 hour in the dark. Catheter segments were then removed from the solution and dried under a fume hood overnight in the dark. Catheter segments were rinsed with deionized water the next day and let dry for another 18 hours in the dark. After the impregnation process and drying, one-centimeter segments of impregnated catheters were individually placed in 1 ml of 10^5 cfu/ml suspensions of MRSE, MRSA, or K. pneumoniae in trypticase soy broth (TSB) at 37° C. for 24 hours. One-centimeter segments of non-impregnated catheters were also incubated individually in each bacterial suspension at 37° C. for 24 hours as controls. […]
(§2) Aliquots of each suspension and subsequent dilutions were cultured quantitatively.

Pseudomonas aeruginosa = assay: as above; assay type: cell-based; details: catheter impregnated with 100 mg/ml, 10^5 cfu/ml suspension in TSB, 37° C., 24 hours
Method: as §1, with “lipoamide,” for “dihydrolipoic acid,”, “lipoamide” for “dihydrolipoic acid”, “100” for “25”, “P. aeruginosa” for “K. pneumoniae”
as §2

Klebsielle pneuminiae II = assay: Bacterial colony counts extracted from impregnated central venous catheters after incubation in bacterial suspension; assay type: cell-based, Klebsiella pneumoniae; details: catheter impregnated with 50 mg/ml, 10^5 cfu/ml suspension in TSB, 37° C., 24 hours
Method: (§3) In this example, segments of 7 French triple lumen polyurethane central venous catheters were impregnated with α-lipoic acid using the method described elsewhere (U.S. Pat. No. 6,589,591) and were subjected to zones of inhibition. Briefly, α-lipoic acid was dissolved in 88% formic acid (at a final solution concentration of 50 mg/ml). 85% ortho-Phosphoric acid and glycerol were then added to the solution at 79:8:13 (v/v/v) (formic acid:ortho-phosphoric acid:glycerol). After mixing the solution, 300 mg/ml of potassium chloride was added to the final solution and mixed.
Catheter segments were then placed in the impregnating solution at 55° C. with agitation for 1 hour in the dark. Catheter segments were then removed from the solution and dried under a fume hood overnight in the dark. Catheter segments were rinsed with deionized water the next day and let dry for another 18 hours in the dark. […]
as §2

Klebsiella pneumoniae I = assay: as above; assay type: cell-based; details: catheter impregnated with 50 mg/ml, 10^5 cfu/ml suspension in TSB, 37° C., 24 hours
Method: as §3
(§4) Catheter segments were then placed in the impregnating solution at 55° C. with agitation for 1 hour in the dark. Catheter segments were then removed from the solution and dried under a fume hood overnight in the dark. Catheter segments were rinsed with deionized water the next day and let dry for another 18 hours in the dark. After the impregnation process and drying, one-centimeter segments of impregnated catheters were individually placed in 1 ml of 10^5 cfu/ml suspensions of methicillin-sensitive Staphylococcus epidermidis (MSSE), methicillin-resistant Staphylococcus epidermidis (MRSE), methicillin-resistant Staphylococcus aureus (MRSA), Klebsiella pneumoniae, Escherichia coli, or Proteus mirabilis in trypticase soy broth (TSB) at 37° C. for 24 hours. One-centimeter segments of non-impregnated catheters were also incubated individually in each bacterial suspension at 37° C. for 24 hours as controls. Catheter segments were removed from each bacterial suspension after this period, shaken to remove excess broth containing free-floating bacteria from their surfaces, placed in 1 ml of normal saline, sonicated for 5 minutes, and vortexed for 30 seconds.
as §2

Proteus mirabilis = assay: as above; assay type: cell-based; details: catheter impregnated with 50 mg/ml, 10^5 cfu/ml suspension in TSB, 37° C., 24 hours
Method: as §3, §4, §2

Escherichia coli = assay: as above; assay type: cell-based; details: catheter impregnated with 50 mg/ml, 10^5 cfu/ml suspension in TSB, 37° C., 24 hours
Method: as §3, §4, §2

[1] = system: methicillin-sensitive Staphylococcus epidermidis (MSSE); assay: as above; assay type: cell-based; details: catheter impregnated with 50 mg/ml, 10^5 cfu/ml suspension in TSB, 37° C., 24 hours
Method: as §3, §4, §2

Structure (SMILES): O=C(O)CCCCC(S)CCS (stereo not shown) [Dihydrolipoic acid, 6,8-dimercaptooctanoic acid]
- Mean bacterial colony counts extracted from catheter (Klebsiella pneumoniae): 280000

Structure (SMILES): NC(=O)CCCCC1CCSS1 (stereo not shown) [Lipoamide, lipoamide]
- Mean bacterial colony counts extracted from catheter (Pseudomonas aeruginosa): 210000

Structure (SMILES): O=C(O)CCCCC1CCSS1 (stereo not shown) [Lipoic acid, 1,2-dithiolane-3-pentanoic acid]
- Bacterial colony counts extracted from central venous catheters (Klebsielle pneuminiae II): 9.0 × 10^3
- Bacterial colony counts extracted from central venous catheters (Klebsiella pneumoniae I): 1.1 × 10^6
- Bacterial colony counts extracted from central venous catheters (Proteus mirabilis): 0
- Bacterial colony counts extracted from central venous catheters (Escherichia coli): 1.4 × 10^4
- Bacterial colony counts extracted from central venous catheters [1]: 10
